Test results: patent US10479780B2, “Aminopyrazole derivatives” (Chugai Seiyaku Kabushiki Kaisha, priority 2015, dated 2019)
Read-outs that look alike come from different tables or passages of the source.

Tests used:
Type in all cases: biochemical
human Lck enzyme = target: T1, human Lck enzyme (Homo sapiens, UniProt P06239); test: Lck enzyme inhibitory activity (time-resolved fluorometry, biotinylated peptide phosphorylation); conditions: read-out: LCK_IC50
T1 construct: purchased Carna Biosciences, Inc. 08-170
Summary of the method: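 Readout pairs a europium cryptate-labelled anti-phosphotyrosine antibody with XL665-streptavidin, measured by time-resolved fluorescence. IC50 derived from percent inhibition against untreated controls.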

human Yes1 enzyme = target: T2, human Yes1 enzyme (Homo sapiens, UniProt P07947); test: Yes1 enzyme inhibitory activity (time-resolved fluorometry, biotinylated peptide phosphorylation); conditions: read-out: YES_IC50
T2 construct: made in house
Summary of the method: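 Inhibition was expressed against a compound-free control to give IC50, using TR-FRET read-out (Eu-cryptate anti-pTyr antibody, streptavidin-XL665).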

human Src enzyme = target: T3, human Src enzyme (Homo sapiens, UniProt P12931); test: Src enzyme inhibitory activity (time-resolved fluorometry, biotinylated peptide phosphorylation); conditions: read-out: SRC_IC50
T3 construct: purchased Carna Biosciences, Inc. 08-173
Summary of the method: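 Compounds were tested for blocking tyrosine phosphorylation of a biotinylated peptide substrate by recombinant human Src. Phosphorylated product was quantified by time-resolved fluorometry using europium cryptate and XL665 conjugates, and IC50 was calculated against the compound-free control.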

[1] = biotinylated peptide phosphorylation

T2 sequence (P07947 whole entry): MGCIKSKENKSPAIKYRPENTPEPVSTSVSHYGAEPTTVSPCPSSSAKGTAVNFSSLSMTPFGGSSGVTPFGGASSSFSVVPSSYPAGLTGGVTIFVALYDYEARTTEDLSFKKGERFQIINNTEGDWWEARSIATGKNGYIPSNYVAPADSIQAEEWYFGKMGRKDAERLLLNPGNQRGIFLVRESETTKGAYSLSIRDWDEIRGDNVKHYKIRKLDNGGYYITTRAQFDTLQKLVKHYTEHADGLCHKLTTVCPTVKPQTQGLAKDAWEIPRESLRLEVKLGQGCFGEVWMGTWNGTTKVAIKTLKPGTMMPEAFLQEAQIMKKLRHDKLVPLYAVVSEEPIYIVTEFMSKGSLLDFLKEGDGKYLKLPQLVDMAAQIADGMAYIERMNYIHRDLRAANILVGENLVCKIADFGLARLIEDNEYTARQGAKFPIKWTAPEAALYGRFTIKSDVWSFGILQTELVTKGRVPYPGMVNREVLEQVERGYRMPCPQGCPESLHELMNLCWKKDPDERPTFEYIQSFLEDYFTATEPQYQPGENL
T3 sequence (P12931 whole entry): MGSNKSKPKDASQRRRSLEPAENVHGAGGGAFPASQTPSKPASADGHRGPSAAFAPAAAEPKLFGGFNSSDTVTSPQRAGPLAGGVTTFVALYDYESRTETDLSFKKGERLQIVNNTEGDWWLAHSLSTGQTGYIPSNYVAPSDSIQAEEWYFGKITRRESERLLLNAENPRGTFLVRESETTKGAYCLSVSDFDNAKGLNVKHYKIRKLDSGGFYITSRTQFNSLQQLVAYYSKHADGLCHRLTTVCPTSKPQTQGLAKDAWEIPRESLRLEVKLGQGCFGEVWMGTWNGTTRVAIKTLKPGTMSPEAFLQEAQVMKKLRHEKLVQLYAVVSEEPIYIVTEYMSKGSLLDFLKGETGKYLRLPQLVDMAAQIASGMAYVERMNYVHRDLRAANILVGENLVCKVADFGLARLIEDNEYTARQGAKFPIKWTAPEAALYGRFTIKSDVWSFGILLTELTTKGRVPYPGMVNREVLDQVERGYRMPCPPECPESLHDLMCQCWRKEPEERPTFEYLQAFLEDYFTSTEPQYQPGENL
T1 sequence (P06239 whole entry): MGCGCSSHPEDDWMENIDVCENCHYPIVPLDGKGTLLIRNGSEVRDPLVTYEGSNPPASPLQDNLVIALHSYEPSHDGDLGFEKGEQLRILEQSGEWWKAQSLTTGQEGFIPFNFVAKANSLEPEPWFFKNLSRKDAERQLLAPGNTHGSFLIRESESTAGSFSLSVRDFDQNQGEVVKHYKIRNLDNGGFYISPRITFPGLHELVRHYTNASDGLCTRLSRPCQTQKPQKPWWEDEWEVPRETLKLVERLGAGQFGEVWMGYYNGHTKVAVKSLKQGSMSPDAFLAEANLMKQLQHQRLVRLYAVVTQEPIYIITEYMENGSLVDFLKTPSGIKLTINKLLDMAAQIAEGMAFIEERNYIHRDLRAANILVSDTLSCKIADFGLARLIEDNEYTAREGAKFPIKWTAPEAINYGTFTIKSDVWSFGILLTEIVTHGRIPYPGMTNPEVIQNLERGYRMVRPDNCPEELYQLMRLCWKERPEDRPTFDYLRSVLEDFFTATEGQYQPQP

SMILES | IC50 (human Lck enzyme) [nM] | IC50 (human Yes1 enzyme) [nM] | IC50 (human Src enzyme) [nM] | IC50 (human Lck enzyme; [1]) [nM] | IC50 (human Yes1 enzyme; [1]) [nM] | IC50 (human Src enzyme; [1]) [nM]
Cc1cc(Oc2cc(Cl)ccc2Cl)ncc1-n1ncc(C(=O)c2cc3cc(F)c(NS(C)(=O)=O)cc3[nH]2)c1N [Example 5-1-055, N-[2-[5-amino-1-[6-(2,5-dichlorophenoxy)-4-methylpyridin-3-yl]pyrazole-4-carbonyl]-5-fluoro-1H-indol-6-yl]methanesulfonamide] | 94 | 16 | 190 | – | – | –
Cc1cnc(F)c(S(=O)(=O)Nc2cc3[nH]c(C(=O)c4cnn(-c5cnc(Oc6c(F)cccc6F)cc5C)c4N)cc3cc2C)c1 [Example 5-1-521, N-[2-[5-amino-1-[6-(2,6-difluorophenoxy)-4-methylpyridin-3-yl]pyrazole-4-carbonyl]-5-methyl-1H-indol-6-yl]-2-fluoro-5-methylpyridine-3-sulfonamide] | – | – | – | 180 | 5.8 | 470
Cc1cnc(F)c(S(=O)(=O)Nc2cc3[nH]c(C(=O)c4cnn(-c5cnc(Oc6ccccc6F)cc5C)c4N)cc3cc2C)c1 [Example 5-1-504, N-[2-[5-amino-1-[6-(2-fluorophenoxy)-4-methylpyridin-3-yl]pyrazole-4-carbonyl]-5-methyl-1H-indol-6-yl]-2-fluoro-5-methylpyridine-3-sulfonamide] | – | – | – | 140 | 3.6 | 630
Cc1cc(-n2ncc(C(=O)c3cc4cc(OC(F)F)c(N)cc4[nH]3)c2N)ccc1Oc1ccccc1F [Example 5-1-161, [6-amino-5-(difluoromethoxy)-1H-indol-2-yl]-[5-amino-1-[4-(2-fluorophenoxy)-3-methylphenyl]pyrazol-4-yl]methanone] | 160 | 2.8 | 600 | – | – | –
Cc1cc2cc(C(=O)c3cnn(-c4cnc(Oc5ccc(F)cc5)cc4C)c3N)[nH]c2cc1NS(=O)(=O)CCCF [Example 4-2-076, N-[2-[5-amino-1-[6-(4-fluorophenoxy)-4-methylpyridin-3-yl]pyrazole-4-carbonyl]-5-methyl-1H-indol-6-yl]-3-fluoropropane-1-sulfonamide] | – | – | – | 62 | 18 | 130
Cc1cc2cc(C(=O)c3cnn(-c4cnc(Oc5c(F)cccc5F)cc4C)c3N)[nH]c2cc1NS(=O)(=O)CCCF [Example 4-2-073, N-[2-[5-amino-1-[6-(2,6-difluorophenoxy)-4-methylpyridin-3-yl]pyrazole-4-carbonyl]-5-methyl-1H-indol-6-yl]-3-fluoropropane-1-sulfonamide] | – | – | – | 19 | 3.1 | 37
Cc1cc(Oc2ccccc2F)ccc1-n1ncc(C(=O)c2cc3cc(OCC(F)F)c(N4C(=O)[C@@H]5CCCN5C4=O)cc3[nH]2)c1N [Example 5-1-252, (7aS)-2-[2-[5-amino-1-[4-(2-fluorophenoxy)-2-methylphenyl]pyrazole-4-carbonyl]-5-(2,2-difluoroethoxy)-1H-indol-6-yl]-5,6,7,7a-tetrahydropyrrolo[1,2-c]imidazole-1,3-dione] | 4.6 | 1.2 | 14 | – | – | –
Cc1cc(Oc2ccccc2F)cc(F)c1-n1ncc(C(=O)c2cc3cc(OC(F)F)c(N4CCN(S(C)(=O)=O)CC4)cc3[nH]2)c1N [Example 4-23-003, [5-amino-1-[2-fluoro-4-(2-fluorophenoxy)-6-methylphenyl]pyrazol-4-yl]-[5-(difluoromethoxy)-6-(4-methylsulfonylpiperazin-1-yl)-1H-indol-2-yl]methanone] | – | – | – | 21 | 10 | 62
CCOc1cc2cc(C(=O)c3cnn(-c4ccc(Oc5ccccc5F)cc4C)c3N)[nH]c2cc1C1CCN(S(C)(=O)=O)CC1 [Example 5-1-073, [5-amino-1-[4-(2-fluorophenoxy)-2-methylphenyl]pyrazol-4-yl]-[5-ethoxy-6-(1-methylsulfonylpiperidin-4-yl)-1H-indol-2-yl] methanone] | 32 | 9.7 | 42 | – | – | –
Cc1cc(Oc2ccccc2F)ncc1-n1ncc(C(=O)c2cc3cc(OC(F)F)c(NC4CN(S(C)(=O)=O)C4)cc3[nH]2)c1N [Example 4-23-025, [5-amino-1-[6-(2-fluorophenoxy)-4-methylpyridin-3-yl]pyrazol-4-yl]-[5-(difluoromethoxy)-6-[(1-methylsulfonylazetidin-3-yl)amino]-1H-indol-2-yl]methanone] | – | – | – | 5.6 | 1.8 | 30
Cc1cc(Oc2ccccc2F)ccc1-n1ncc(C(=O)c2cc3cc(OCC(F)F)c(NS(C)(=O)=O)cc3[nH]2)c1N [Example 4-24-021, N-[2-[5-amino-1-[4-(2-fluorophenoxy)-2-methylphenyl]pyrazole-4-carbonyl]-5-(2,2-difluoroethoxy)-1H-indol-6-yl]methanesulfonamide] | – | – | – | 9.7 | 1.7 | 22
Cc1cccc(S(=O)(=O)Nc2cc3[nH]c(C(=O)c4cnn(-c5cnc(Oc6c(F)cccc6F)cc5C)c4N)cc3cc2OCC(F)F)n1 [Example 5-1-573, N-[2-[5-amino-1-[6-(2,6-difluorophenoxy)-4-methylpyridin-3-yl]pyrazole-4-carbonyl]-5-(2,2-difluoroethoxy)-1H-indol-6-yl]-6-methylpyridine-2-sulfonamide] | – | – | – | 14 | 2.9 | 440
Cc1cc(Oc2ccccc2F)ncc1-n1ncc(C(=O)c2cc3cc(OC(F)F)c(N4CCOCC4)cc3[nH]2)c1N [Example 4-25-022, [5-amino-1-[6-(2-fluorophenoxy)-4-methylpyridin-3-yl]pyrazol-4-yl]-[5-(difluoromethoxy)-6-morpholin-4-yl-1H-indol-2-yl]methanone] | – | – | – | 10 | 5.9 | 59
Cc1cc(Oc2ccccc2Cl)ncc1-n1ncc(C(=O)c2cc3cc(F)c(NS(C)(=O)=O)cc3[nH]2)c1N [Example 4-2-033, N-[2-[5-amino-1-[6-(2-chlorophenoxy)-4-methylpyridin-3-yl]pyrazole-4-carbonyl]-5-fluoro-1H-indol-6-yl]methanesulfonamide] | – | – | – | 19 | 0.91 | 49
Cc1cc(Oc2ccccc2F)ncc1-n1ncc(C(=O)c2cc3cc(OCC(F)F)c(NS(=O)(=O)C4CCOCC4)cc3[nH]2)c1N [Example 5-1-326, N-[2-[5-amino-1-[6-(2-fluorophenoxy)-4-methylpyridin-3-yl]pyrazole-4-carbonyl]-5-(2,2-difluoroethoxy)-1H-indol-6-yl]oxane-4-sulfonamide] | 25 | 0.85 | 54 | – | – | –
Cc1cc(Oc2ccccc2F)ncc1-n1ncc(C(=O)c2cc3cc(F)c(NS(=O)(=O)NC4CC4)cc3[nH]2)c1N [Example 5-1-020, [5-amino-1-[6-(2-fluorophenoxy)-4-methylpyridin-3-yl]pyrazol-4-yl]-[6-(cyclopropylsulfamoylamino)-5-fluoro-1H-indol-2-yl]methanone] | 51 | 5.7 | 190 | – | – | –
COc1cc2cc(C(=O)c3cnn(-c4cnc(Oc5ccccc5F)cc4C)c3N)[nH]c2cc1N1CCCS1(=O)=O [Example 4-14-001, {5-amino-1-[6-(2-fluorophenoxy)-4-methylpyridin-3-yl]pyrazol-4-yl}-[6-(1,1-dioxo-1,2-thiazolidin-2-yl)-5-methoxy-1H-indol-2-yl]methanone] | – | – | – | 5.8 | 1.2 | 21
Cc1cc(Oc2ccccc2F)cc(F)c1-n1ncc(C(=O)c2cc3cc(OC(F)F)c(NS(=O)(=O)CCCF)cc3[nH]2)c1N [Example 4-24-006, N-[2-[5-amino-1-[2-fluoro-4-(2-fluorophenoxy)-6-methylphenyl]pyrazole-4-carbonyl]-5-(difluoromethoxy)-1H-indol-6-yl]-3-fluoropropane-1-sulfonamide] | – | – | – | 51 | 4.5 | 200
Cc1cc2cc(C(=O)c3cnn(-c4ccc(Oc5ccccc5F)cc4C)c3N)[nH]c2cc1C1CCN(S(C)(=O)=O)CC1 [Example 5-1-086, [5-amino-1-[4-(2-fluorophenoxy)-2-methylphenyl]pyrazol-4-yl]-[5-methyl-6-(1-methylsulfonylpiperidin-4-yl)-1H-indol-2-yl] methanone] | 2.8 | 1.4 | 8.5 | – | – | –
Cc1cc(-n2ncc(C(=O)c3cc4cc(OC5CCN(C(C)C)CC5)c(N5CCOCC5)cc4[nH]3)c2N)ccc1Oc1ccccc1F [Example 5-1-174, (5-amino-1-(4-(2-fluorophenoxy)-3-methylphenyl)-1H-pyrazol-4-yl)(5-((1-isopropylpiperidin-4-yl)oxy)-6-morpholino-1H-indol-2-yl)methanone] | 4.5 | 0.56 | 46 | – | – | –
Cc1cc(Oc2ccccc2F)ccc1-n1ncc(C(=O)c2cc3cc(OCC(F)F)c(NS(=O)(=O)c4cccc(C#N)c4)cc3[nH]2)c1N [Example 5-1-416, N-[2-[5-amino-1-[4-(2-fluorophenoxy)-2-methylphenyl]pyrazole-4-carbonyl]-5-(2,2-difluoroethoxy)-1H-indol-6-yl]-3-cyanobenzenesulfonamide] | – | – | – | 58 | 3.4 | 210
Cc1cc2cc(C(=O)c3cnn(-c4ccc(Oc5ccccc5F)c(C)c4F)c3N)[nH]c2cc1NS(C)(=O)=O [Example 5-1-207, N-[2-[5-ainino-1-[2-fluoro-4-(2-fluorophenoxy)-3-methylphenyl]pyrazole-4-carbonyl]-5-methyl-1H-indol-6-yl]methanesulfonamide] | 82 | 1.9 | 350 | – | – | –
